In patent publication US10941157B2, “Pesticidal compositions and uses thereof” (Gilead Apollo, LLC, priority 2015, dated 2021) one finds IC90 data, which are given here for 12 compounds.

≈ marks a conversion by molar mass, not a printed value. Read-outs that look alike come from different tables or passages of the source. A value given as a limit tells only on which side of the number the result lay.

What all share (assay type): cell-based
The test system of one assay is Botrtyis cinerea (Bc). As to the kind of experiment: In vitro pathogen growth inhibition assay, Bc. The note with it: 48 h. Summed up:
(§1)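 Value reported is the compound concentration reaching ≥90% growth inhibition, from OD readings at 24 and 48 h after blank subtraction, confirmed visually. Inoculum was spores diluted in 17% V8 medium, except Rs, using 1.5 mm mycelial plugs in ¼ PDB; actual compound concentration corrected via OD600.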

The test system of assay [1] is Collectotrichum graminicola (Cg). As to the kind of experiment: In vitro pathogen growth inhibition assay, Cg. The following applies: 48 h. In short, it runs like this: as §1
The test system of a further assay is Diplodia maydis (Dm). As to the kind of experiment: In vitro pathogen growth inhibition assay, Dm. The note with it: Stenocarpella maydis, 48 h. In short, it runs like this: as §1
Assay [2] has as its system Fusarium moniliforme (Fm). As to the kind of experiment: In vitro pathogen growth inhibition assay, Fm. The note with it: Fusarium verticillioides. Summed up:
as §1

Assay [3] has as its system Fusarium virguliforme (Fv). Put plainly: In vitro pathogen growth inhibition assay, Fv. Summed up: as §1
The test system of assay [4] is Phytophthora capsici (Pc). Put plainly: In vitro pathogen growth inhibition assay, Pc. The note with it: 48 h. Summed up: as §1
The next assay relates to Rhizoctonia solani (Rs). Put plainly: In vitro pathogen growth inhibition assay, Rs (mycelial plugs). The note with it: Rhizoctonia solani, 48 h. Summed up: as §1
In another assay the test system is Septoria tritici (St). Put plainly: In vitro pathogen growth inhibition assay, St. The note with it: Zymoseptoria tritici, 48 h. In short, it runs like this:
as §1

Where [5] appears, read: ≥90% growth inhibition, 48 hours, vs 2% DMSO control, read-out: Compound Concentration (ppm) sufficient for ≥90% inhibition of Bc.
Setting [6] is: ≥90% growth inhibition, 48 hours, vs 2% DMSO control, read-out: Compound Concentration (ppm) sufficient for ≥90% inhibition of Cg.
[7] abbreviates: ≥90% growth inhibition, 48 hours, vs 2% DMSO control, read-out: Compound Concentration (ppm) sufficient for ≥90% inhibition of Dm.
Setting [8] is: ≥90% growth inhibition, 48 hours, vs 2% DMSO control, read-out: Compound Concentration (ppm) sufficient for ≥90% inhibition of Fm.
[9] abbreviates: ≥90% growth inhibition, 48 hours, vs 2% DMSO control, read-out: Compound Concentration (ppm) sufficient for ≥90% inhibition of Fv.
[10] abbreviates: ≥90% growth inhibition, 48 hours, vs 2% DMSO control, read-out: Compound Concentration (ppm) sufficient for ≥90% inhibition of Pc.
[11] abbreviates: ≥90% growth inhibition, mycelial plugs, 48 hours, vs 2% DMSO control, read-out: Compound Concentration (ppm) sufficient for ≥90% inhibition of Rs.
The mark [12] stands for this setting: ≥90% growth inhibition, 48 hours, vs 2% DMSO control, read-out: Compound Concentration (ppm) sufficient for ≥90% inhibition of St.
[13] abbreviates: concentration sufficient to ≥90% inhibition of growth, 48 hours vs 2% DMSO control, read-out: Compound Concentration (ppm) for ≥90% inhibition, Bc.
[14] abbreviates: concentration sufficient to ≥90% inhibition of growth, 48 hours vs 2% DMSO control, read-out: Compound Concentration (ppm) for ≥90% inhibition, Cg.
Where [15] appears, read: concentration sufficient to ≥90% inhibition of growth, 48 hours vs 2% DMSO control, read-out: Compound Concentration (ppm) for ≥90% inhibition, Dm.
The mark [16] stands for this setting: concentration sufficient to ≥90% inhibition of growth, 48 hours vs 2% DMSO control, read-out: Compound Concentration (ppm) for ≥90% inhibition, Fm.
Where [17] appears, read: concentration sufficient to ≥90% inhibition of growth, 48 hours vs 2% DMSO control, read-out: Compound Concentration (ppm) for ≥90% inhibition, Fv.
[18] abbreviates: concentration sufficient to ≥90% inhibition of growth, 48 hours vs 2% DMSO control, read-out: Compound Concentration (ppm) for ≥90% inhibition, Pc.
Where [19] appears, read: concentration sufficient to ≥90% inhibition of growth, 48 hours vs 2% DMSO control, read-out: Compound Concentration (ppm) for ≥90% inhibition, Rs.
The mark [20] stands for this setting: concentration sufficient to ≥90% inhibition of growth, 48 hours vs 2% DMSO control, read-out: Compound Concentration (ppm) for ≥90% inhibition, St.

In the case of `COc1ccc(F)cc1CCn1c(=O)n(C(C)(C)C(=O)NC(C)C)c(=O)c2c(C)c(-n3cccn3)sc21` [Compound I-329], the IC90 is 10 µg/mL (≈ 19 µM) with Botrtyis cinerea (Bc) (setting [5]); 50 µg/mL (≈ 94.8 µM) in assay [1] (setting [6]); 50 µg/mL (≈ 94.8 µM) in the assay on Diplodia maydis (Dm) (setting [7]); 2 µg/mL (≈ 3.79 µM) in assay [2] (setting [8]); 2 µg/mL (≈ 3.79 µM) in assay [3] (setting [9]); more than 50 µg/mL in assay [4] (setting [10]). Besides, the IC90 in the assay with Rhizoctonia solani (Rs) (setting [11]) is 50 µg/mL (≈ 94.8 µM); with Septoria tritici (St) (setting [12]), more than 50 µg/mL.
Consider `Cc1c(-n2nccn2)sc2c1c(=O)n(C(C)(C)C(=O)NC(C)C)c(=O)n2CCc1cc(F)ccc1OC1CCOCC1` [Compound I-331], for which the IC90 in the assay on Botrtyis cinerea (Bc) (setting [5]) is 2 µg/mL (≈ 3.34 µM); in assay [1] (setting [6]), 10 µg/mL (≈ 16.7 µM); with Diplodia maydis (Dm) (setting [7]) it was more than 50 µg/mL; in assay [2] (setting [8]), 0.08 µg/mL (≈ 0.134 µM); in assay [3] (setting [9]) it was 0.08 µg/mL (≈ 0.134 µM); in assay [4] (setting [10]), more than 50 µg/mL. Moreover, the IC90 is 10 µg/mL (≈ 16.7 µM) in the assay on Rhizoctonia solani (Rs) (setting [11]) and more than 50 µg/mL with Septoria tritici (St) (setting [12]).
For the compound `Cc1c(-n2nccn2)sc2c1c(=O)n(C(C)(C)C(=O)NC(C)C)c(=O)n2CCc1cc(F)ccc1OCc1ccccc1` [Compound I-332], the IC90 with Botrtyis cinerea (Bc) (setting [5]) is more than 50 µg/mL; in assay [1] (setting [6]), more than 50 µg/mL; with Diplodia maydis (Dm) (setting [7]) it was more than 50 µg/mL; in assay [2] (setting [8]), 2 µg/mL (≈ 3.31 µM); in assay [3] (setting [9]), 2 µg/mL (≈ 3.31 µM); in assay [4] (setting [10]), more than 50 µg/mL. For the same compound, the IC90 in the assay on Rhizoctonia solani (Rs) (setting [11]) and with Septoria tritici (St) (setting [12]) was more than 50 µg/mL throughout.
On to `COc1ccccc1[C@H](Cn1c(=O)n([C@H](C)C(=O)NC(C)C)c(=O)c2c(C)c(-n3cccn3)sc21)OCCC#N` [Compound I-333], for which the IC90 came out at 2 µg/mL (≈ 3.54 µM) with Botrtyis cinerea (Bc) (setting [5]); 2 µg/mL (≈ 3.54 µM) in assay [1] (setting [6]); 10 µg/mL (≈ 17.7 µM) in the assay on Diplodia maydis (Dm) (setting [7]); 0.4 µg/mL (≈ 0.708 µM) in assay [2] (setting [8]); 10 µg/mL (≈ 17.7 µM) in assay [3] (setting [9]); 50 µg/mL (≈ 88.5 µM) in assay [4] (setting [10]). Moreover, the IC90 was 2 µg/mL (≈ 3.54 µM) in the assay with Rhizoctonia solani (Rs) (setting [11]) and more than 50 µg/mL with Septoria tritici (St) (setting [12]).
In the case of `CC(=O)Oc1ccc(F)cc1[C@@H](Cn1c(=O)n(C(C)(C)C(=O)NC(C)C)c(=O)c2c(C)c(-n3nccn3)sc21)OCCC#N` [Compound I-334], the IC90 in the assay with Botrtyis cinerea (Bc) (setting [13]) was more than 50 µg/mL; in assay [1] (setting [14]) it was more than 50 µg/mL; with Diplodia maydis (Dm) (setting [15]), more than 50 µg/mL; in assay [2] (setting [16]), 50 µg/mL (≈ 79.9 µM); in assay [3] (setting [17]), more than 50 µg/mL; in assay [4] (setting [18]) it was more than 50 µg/mL. Besides, the IC90 in the assay on Rhizoctonia solani (Rs) (setting [19]) and in the assay on Septoria tritici (St) (setting [20]) was more than 50 µg/mL throughout.
Regarding `CCOC(=O)c1ccc(F)cc1[C@H](Cn1c(=O)n(C(C)(C)C(=O)NC(C)C)c(=O)c2c(C)c(-n3nccn3)sc21)OCCC#N` [Compound I-335], the IC90 in the assay on Botrtyis cinerea (Bc) (setting [5]) is 10 µg/mL (≈ 15.6 µM); in assay [1] (setting [6]), 50 µg/mL (≈ 78.2 µM); in the assay on Diplodia maydis (Dm) (setting [7]), 50 µg/mL (≈ 78.2 µM); in assay [2] (setting [8]) it was 2 µg/mL (≈ 3.13 µM); in assay [3] (setting [9]), 2 µg/mL (≈ 3.13 µM); in assay [4] (setting [10]) it was more than 50 µg/mL. Moreover, the IC90 was 10 µg/mL (≈ 15.6 µM) with Rhizoctonia solani (Rs) (setting [11]) and more than 50 µg/mL in the assay on Septoria tritici (St) (setting [12]).
Take `Cc1c(-n2cccn2)sc2c1c(=O)n(C(C)(C)C(=O)NC(C)C)c(=O)n2CCc1cc(F)ccc1OCCC#N` [Compound I-336]: the IC90 was 50 µg/mL (≈ 88.2 µM) with Botrtyis cinerea (Bc) (setting [13]); more than 50 µg/mL in assay [1] (setting [14]); more than 50 µg/mL in the assay on Diplodia maydis (Dm) (setting [15]); 10 µg/mL (≈ 17.6 µM) in assay [2] (setting [16]); 10 µg/mL (≈ 17.6 µM) in assay [3] (setting [17]); more than 50 µg/mL in assay [4] (setting [18]). Also, the IC90 in the assay with Rhizoctonia solani (Rs) (setting [19]) and in the assay with Septoria tritici (St) (setting [20]) was more than 50 µg/mL throughout.
`Cc1c(-n2cccn2)sc2c1c(=O)n(C(C)(C)C(=O)NC(C)C)c(=O)n2CCc1cc(F)ccc1OCCO` [Compound I-337]: the IC90 with Botrtyis cinerea (Bc) (setting [13]) is 50 µg/mL (≈ 89.7 µM); in assay [1] (setting [14]), more than 50 µg/mL; in the assay with Diplodia maydis (Dm) (setting [15]), more than 50 µg/mL; in assay [2] (setting [16]), 10 µg/mL (≈ 17.9 µM); in assay [3] (setting [17]), 10 µg/mL (≈ 17.9 µM); in assay [4] (setting [18]), more than 50 µg/mL. The IC90 with Rhizoctonia solani (Rs) (setting [19]) is 10 µg/mL (≈ 17.9 µM); in the assay with Septoria tritici (St) (setting [20]) it was more than 50 µg/mL.
For the compound `Cc1c(-n2nccn2)sc2c1c(=O)n(C(C)(C)C(=O)NC(C)C)c(=O)n2CCc1cc(F)ccc1OC(C)C` [Compound I-338], the IC90 is 2 µg/mL (≈ 3.59 µM) with Botrtyis cinerea (Bc) (setting [5]); 10 µg/mL (≈ 18 µM) in assay [1] (setting [6]); 2 µg/mL (≈ 3.59 µM) in the assay on Diplodia maydis (Dm) (setting [7]); 0.08 µg/mL (≈ 0.144 µM) in assay [2] (setting [8]); 0.08 µg/mL (≈ 0.144 µM) in assay [3] (setting [9]); more than 50 µg/mL in assay [4] (setting [10]). Also, the IC90 in the assay on Rhizoctonia solani (Rs) (setting [11]) is 10 µg/mL (≈ 18 µM); with Septoria tritici (St) (setting [12]), more than 50 µg/mL.
As to `CCOC(=O)c1sc2c(c1C)c(=O)n(C(C)(C)C(=O)NC(C)C)c(=O)n2CCc1cc(F)ccc1OCCC#N` [Compound I-339], the IC90 in the assay with Botrtyis cinerea (Bc) (setting [5]) is 10 µg/mL (≈ 17.5 µM); in assay [1] (setting [6]), more than 50 µg/mL; in the assay on Diplodia maydis (Dm) (setting [7]), more than 50 µg/mL; in assay [2] (setting [8]), 2 µg/mL (≈ 3.49 µM); in assay [3] (setting [9]) it was 2 µg/mL (≈ 3.49 µM); in assay [4] (setting [10]), more than 50 µg/mL. Moreover, the IC90 with Rhizoctonia solani (Rs) (setting [11]) is 50 µg/mL (≈ 87.3 µM); in the assay with Septoria tritici (St) (setting [12]), more than 50 µg/mL.
Regarding `Cc1c(-n2nccn2)sc2c1c(=O)n(C(C)(C)C(=O)NC(C)C)c(=O)n2CCc1cc(F)ccc1OCCC#N` [Compound I-340], the IC90 is 10 µg/mL (≈ 17.6 µM) in the assay with Botrtyis cinerea (Bc) (setting [5]); 50 µg/mL (≈ 88.1 µM) in assay [1] (setting [6]); 50 µg/mL (≈ 88.1 µM) with Diplodia maydis (Dm) (setting [7]); 2 µg/mL (≈ 3.52 µM) in assay [2] (setting [8]); 2 µg/mL (≈ 3.52 µM) in assay [3] (setting [9]); more than 50 µg/mL in assay [4] (setting [10]). Also, the IC90 was 50 µg/mL (≈ 88.1 µM) in the assay with Rhizoctonia solani (Rs) (setting [11]) and more than 50 µg/mL in the assay on Septoria tritici (St) (setting [12]).
Regarding `COc1ccc(F)cc1[C@@H](CCCC#N)Cn1c(=O)n(C(C)(C)C(=O)NC(C)C)c(=O)c2c(C)c(-n3ccnn3)sc21` [Compound I-341], the IC90 (in the assay with Botrtyis cinerea (Bc) (setting [13]); in assay [1] (setting [14]); in the assay on Diplodia maydis (Dm) (setting [15]); in assay [2] (setting [16]); in assay [3] (setting [17]); in assay [4] (setting [18])) was more than 50 µg/mL each time. Also, the IC90 in the assay on Rhizoctonia solani (Rs) (setting [19]) and with Septoria tritici (St) (setting [20]) was more than 50 µg/mL each time.
